According to patent US9955691B2, “Macrocyclic picolinamides as fungicides” (DOW AGROSCIENCES LLC, priority 2014, dated 2018):
Read-outs that look alike come from different tables or passages of the source.

Key:
[1] = tested on: Mycosphaerella graminicola; Anamorph: Septoria tritici; experiment: Fungicidal activity: Leaf Blotch of Wheat (SEPTTR); type: in vivo; details: Zymoseptoria tritici, Low Volume (121.5 g/H), wheat leaf blotch
How it was run: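 Compounds were dissolved in acetone, diluted with nine volumes of water containing 110 ppm Triton X-100, and sprayed to run-off on first-leaf Yuma wheat seedlings inoculated with Septoria tritici spores before or after treatment. Plants were held in a dew chamber, then a 20° C. greenhouse. Percent control was derived from disease severity relative to untreated plants.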

Puccinia triticina = experiment: Fungicidal activity: Wheat Brown Rust (PUCCRT); type: in vivo; details: Low Volume (121.5 g/H)
How it was run: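 Wheat seedlings (Yuma, first leaf) sprayed to run-off with compound in acetone/water with Triton X-100, inoculated with Puccinia triticina before or after treatment. Held overnight in dark dew at 22° C, then greenhouse at 24° C; percent disease control from severity versus untreated plants.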

[2] = 24 h, 1 Day Protectant, read-out: SEPTTR 1 DP disease control
[3] = 72 h, 3 Day Curative, read-out: SEPTTR 3 DC disease control
[4] = 24 h, 1 Day Protectant, read-out: PUCCRT 1 DP disease control
[5] = 72 h, 3 Day Curative, read-out: PUCCRT 3 DC disease control

Row | SMILES | melting point [°C] | pest or weed control at 121.5 g/ha [1, 2] [%] | pest or weed control at 121.5 g/ha [1, 3] [%] | pest or weed control at 121.5 g/ha (Puccinia triticina; [4]) [%] | pest or weed control at 121.5 g/ha (Puccinia triticina; [5]) [%]
1 | COc1ccnc(C(=O)N[C@H]2COC[C@H](Cc3ccc(Cl)cc3)[C@@H](Cc3ccc(OC(F)(F)F)cc3)[C@H](C)OC2=O)c1OCOC(C)=O [compound 58] | 158 to 161 | > 70 | > 70 | > 70 | < 70
2 | COc1ccnc(C(=O)N[C@H]2COC[C@H](Cc3ccc(C(F)(F)F)cc3)[C@@H](Cc3ccc(OC(F)(F)F)cc3)[C@H](C)OC2=O)c1OCOC(C)=O [compound 66] | 57 to 60 | > 70 | > 70 | > 70 | > 70
3 | COc1ccnc(C(=O)N[C@H]2COC[C@H](Cc3ccc(C(F)(F)F)cc3)[C@@H](CC(C)C)[C@H](C)OC2=O)c1OCOC(C)=O [compound 71] | 54 to 59 | > 70 | > 70 | > 70 | > 70
4 | COc1ccnc(C(=O)N[C@H]2COC[C@H](Cc3ccc(Cl)cc3)[C@@H](C3CCCC3)[C@H](C)OC2=O)c1OC(C)=O [compound 86] | 85 to 89 | > 70 | > 70 | > 70 | > 70
5 | COc1ccnc(C(=O)N[C@H]2COC[C@H](Cc3ccc(Cl)cc3)[C@@H](C3CCCC3)[C@H](C)OC2=O)c1OC(=O)C(C)C [compound 87] | 73 to 77 | > 70 | > 70 | > 70 | < 70
6 | COc1ccnc(C(=O)N[C@H]2COC[C@H](Cc3ccc(Cl)cc3)[C@@H](C3CCCC3)[C@H](C)OC2=O)c1OCOC(C)=O [compound 88] | 56 to 60 | > 70 | < 70 | > 70 | < 70
7 | COc1ccnc(C(=O)N[C@H]2COC[C@H](Cc3ccc(Cl)cc3)[C@@H](C3CCCC3)[C@H](C)OC2=O)c1OCOC(=O)C(C)C [compound 89] | 54 to 58 | > 70 | > 70 | > 70 | < 70
8 | CCOCC(=O)OCOc1c(OC)ccnc1C(=O)N[C@H]1COC[C@H](Cc2ccc(Cl)cc2)[C@@H](C2CCCC2)[C@H](C)OC1=O [compound 90, ((2-(((3S,7R,8R,9S)-7-(4-chlorobenzyl)-8-cyclopentyl-9-methyl-2-oxo-1,5-dioxonan-3-yl)carbamoyl)-4-methoxypyridin-3-yl)oxy)methyl 2-ethoxyacetate] | 52 to 55 | > 70 | > 70 | > 70 | < 70
9 | COc1ccnc(C(=O)N[C@H]2COC[C@H](CCC(C)C)[C@@H](C3CCCC3)[C@H](C)OC2=O)c1OC(C)=O [compound 91] | 57 to 62 | > 70 | > 70 | > 70 | < 70
10 | COc1ccnc(C(=O)N[C@H]2COC[C@H](CCC(C)C)[C@@H](C3CCCC3)[C@H](C)OC2=O)c1OC(=O)C(C)C [compound 92, 2-(((3S,7R,8R,9S)-8-cyclopentyl-7-isopentyl-9-methyl-2-oxo-1,5-dioxonan-3-yl)carbamoyl)-4-methoxypyridin-3-yl isobutyrate] | 47 to 51 | > 70 | > 70 | > 70 | > 70
11 | COc1ccnc(C(=O)N[C@H]2COC[C@H](CCC(C)C)[C@@H](C3CCCC3)[C@H](C)OC2=O)c1OCOC(C)=O [compound 93] | 47 to 53 | > 70 | < 70 | > 70 | < 70

The next lines start with results.

Row | melting point [°C] | SMILES | pest or weed control at 121.5 g/ha [1, 2] [%] | pest or weed control at 121.5 g/ha [1, 3] [%] | pest or weed control at 121.5 g/ha (Puccinia triticina; [4]) [%] | pest or weed control at 121.5 g/ha (Puccinia triticina; [5]) [%]
12 | 80 to 85 | COc1ccnc(C(=O)N[C@H]2COC[C@H](Cc3ccc(Cl)cc3)[C@@H](Cc3ccc(OC(F)(F)F)cc3)[C@H](C)OC2=O)c1OC(C)=O [compound 59] | < 70 | < 70 | < 70 | < 70
13 | 37 to 40 | COc1ccnc(C(=O)N[C@H]2COC[C@H](CCCc3ccccc3)[C@@H](CCc3ccccc3)[C@H](C)OC2=O)c1OCOC(C)=O [compound 67] | < 70 | < 70 | < 70 | < 70
14 | 41 to 45 | COc1ccnc(C(=O)N[C@H]2COC[C@H](CC3CC3)[C@@H](Cc3ccccc3)[C@H](C)OC2=O)c1OCOC(C)=O [compound 68] | > 70 | < 70 | > 70 | < 70
15 | 125 to 128 | COc1ccnc(C(=O)N[C@H]2COC[C@H](CC3CC3)[C@@H](Cc3ccccc3)[C@H](C)OC2=O)c1OC(C)=O [compound 69] | > 70 | > 70 | > 70 | > 70
16 | 37 to 41 | COc1ccnc(C(=O)N[C@H]2COC[C@H](CC3CC3)[C@@H](Cc3ccccc3)[C@H](C)OC2=O)c1OCOC(=O)C(C)C [compound 70] | > 70 | > 70 | > 70 | > 70
17 | 75 to 79 | COc1ccnc(C(=O)N[C@H]2COC[C@H](Cc3ccc(C(F)(F)F)cc3)[C@@H](CC(C)C)[C@H](C)OC2=O)c1OC(C)=O [compound 72] | > 70 | > 70 | > 70 | > 70
18 | 70 to 74 | COc1ccnc(C(=O)N[C@H]2COC[C@H](Cc3ccccc3)[C@@H](COc3ccccc3)[C@H](C)OC2=O)c1OC(C)=O [compound 95, 2-(((3S,7R,8S,9S)-7-benzyl-9-methyl-2-oxo-8-(phenoxymethyl)-1,5-dioxonan-3-yl)carbamoyl)-4-methoxypyridin-3-yl acetate] | > 70 | > 70 | > 70 | > 70
19 | 56 to 61 | COc1ccnc(C(=O)N[C@H]2COC[C@H](Cc3ccccc3)[C@@H](COc3ccccc3)[C@H](C)OC2=O)c1OCOC(C)=O [compound 96] | > 70 | > 70 | > 70 | < 70
